The record followed here is ChEMBL document CHEMBL1641531, “Receptor activity and conformational analysis of 5'-halogenated resiniferatoxin analogs as TRPV1 ligands” (Bioorg Med Chem Lett, 2011).

In experiment [1] the target is T1, Transient receptor potential cation channel subfamily V member 1 (Rattus norvegicus, UniProt O35433). Kind of experiment: (§1) Antagonist activity at rat TRPV1 expressed in CHO cells assessed as response to capsaicin-stimulated 45Ca2+ uptake. It is filed as functional, cell-based.
Experiment [2] has as its target T1, Transient receptor potential cation channel subfamily V member 1. Kind of experiment: Displacement of [3H]RTX from rat […] expressed in CHO cells by competitive binding assay. It is filed as cell-based.
Experiment [3] has the same target. As to the kind of experiment: Agonist activity at rat TRPV1 expressed in CHO cells assessed as 45Ca2+ uptake. Format: functional, cell-based.
For experiment [4], the target named is Transient receptor potential cation channel subfamily V member 1 (Rattus norvegicus) (UniProt O35433). Described as §1. It is filed as functional, cell-based. The arrangement: scale not given: the % may be the effect or the level left.
For experiment [5] the target is unchanged. As to the kind of experiment: Agonist activity at rat TRPV1 expressed in CHO cells assessed as 45Ca2+ uptake relative to capsaicin. Format: functional, cell-based.

Structures are written as SMILES.

Sequence of Transient receptor potential cation channel subfamily V member 1 (Rattus norvegicus) (O35433 whole entry): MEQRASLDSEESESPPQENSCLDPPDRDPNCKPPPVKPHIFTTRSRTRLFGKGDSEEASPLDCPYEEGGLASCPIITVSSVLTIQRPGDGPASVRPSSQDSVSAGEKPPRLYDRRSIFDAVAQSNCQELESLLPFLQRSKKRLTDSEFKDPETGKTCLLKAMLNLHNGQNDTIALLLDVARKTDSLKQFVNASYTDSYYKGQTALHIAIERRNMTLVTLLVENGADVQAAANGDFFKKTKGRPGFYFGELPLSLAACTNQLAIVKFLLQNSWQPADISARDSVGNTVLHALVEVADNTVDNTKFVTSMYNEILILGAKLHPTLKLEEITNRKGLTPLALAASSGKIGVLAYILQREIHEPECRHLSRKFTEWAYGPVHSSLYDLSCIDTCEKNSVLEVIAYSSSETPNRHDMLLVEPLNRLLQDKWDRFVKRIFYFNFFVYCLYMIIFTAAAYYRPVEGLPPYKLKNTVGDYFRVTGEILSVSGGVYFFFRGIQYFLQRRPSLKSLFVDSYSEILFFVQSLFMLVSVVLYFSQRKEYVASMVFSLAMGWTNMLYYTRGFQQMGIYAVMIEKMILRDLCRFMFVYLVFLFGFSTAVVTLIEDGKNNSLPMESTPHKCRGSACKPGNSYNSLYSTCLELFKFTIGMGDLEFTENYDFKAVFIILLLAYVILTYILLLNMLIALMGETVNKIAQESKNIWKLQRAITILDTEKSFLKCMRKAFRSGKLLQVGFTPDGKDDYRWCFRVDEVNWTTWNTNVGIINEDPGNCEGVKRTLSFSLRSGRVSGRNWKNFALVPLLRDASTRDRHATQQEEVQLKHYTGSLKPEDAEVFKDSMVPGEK
T1 sequence (O35433 whole entry): as above

For the compound `C=C(C)[C@@]12C[C@@H](C)C34OC(Cc5ccccc5)(OC1[C@@H]3C=C(COC(=O)Cc1cc(Cl)c(O)c(OC)c1)C[C@]1(O)C(=O)C(C)=C[C@@H]41)O2` (stereo partly specified), the Ki entry in experiment [1] (cho) was “Not Active”; in experiment [2], 1.03 nM. In experiment [3] (read-out: EC50), the EC50 is 5.7 nM.

On to `C=C(C)[C@@]12C[C@@H](C)C34OC(Cc5ccccc5)(OC1[C@@H]3C=C(COC(=O)Cc1cc(Br)c(N)c(OC)c1)C[C@]1(O)C(=O)C(C)=C[C@@H]41)O2` (stereo partly specified), for which the inhibition constant (Ki) was determined as 2.81 nM in experiment [1] (read-out: Ki) and 1.99 nM in experiment [2]. Also, the EC50 entry in experiment [3] (cho) was “Not Active”.

Take `C=C(C)[C@@]12C[C@@H](C)C34OC(Cc5ccccc5)(OC1[C@@H]3C=C(COC(=O)Cc1ccc(N)c(OC)c1)C[C@]1(O)C(=O)C(C)=C[C@@H]41)O2` (stereo partly specified): the Ki result in experiment [1] (cho) is “Not Active”; in experiment [2], 0.13 nM. In addition, the 50% effective concentration (EC50) in experiment [3] (read-out: EC50) was 0.46 nM.

For `C=C(C)[C@@]12C[C@@H](C)C34OC(Cc5ccccc5)(OC1[C@@H]3C=C(COC(=O)Cc1cc(F)c(N)c(OC)c1)C[C@]1(O)C(=O)C(C)=C[C@@H]41)O2` (stereo partly specified), the inhibition constant Ki result in experiment [1] (cho) was “Not Active”; in experiment [2] it was 0.7 nM. Further, in experiment [3] (read-out: EC50), the 50% effective concentration (EC50) came out at 1.14 nM.

As for `C=C(C)[C@@]12C[C@@H](C)C34OC(Cc5ccccc5)(OC1[C@@H]3C=C(COC(=O)Cc1cc(I)c(O)c(OC)c1)C[C@]1(O)C(=O)C(C)=C[C@@H]41)O2` (stereo partly specified), the Ki in experiment [1] (read-out: Ki) was 12.2 nM; in experiment [2], 0.61 nM. The 50% effective concentration (EC50) entry in experiment [3] (cho) is “Not Active”.

For `C=C(C)[C@@]12C[C@@H](C)C34OC(Cc5ccccc5)(OC1[C@@H]3C=C(COC(=O)Cc1cc(Br)cc(Br)c1)C[C@]1(O)C(=O)C(C)=C[C@@H]41)O2` (stereo partly specified), the inhibition constant (Ki) result in experiment [1] (cho) was “Not Active”; in experiment [2], 110 nM. Further, in experiment [3] (read-out: EC50), the half-maximal effective concentration (EC50) was 1070 nM.

On to `C=C(C)[C@]12C[C@@H](C)[C@@]34O[C@](Cc5ccccc5)(O[C@@H]1[C@@H]3C=C(COC(=O)Cc1ccc(O)c(OC)c1)C[C@]1(O)C(=O)C(C)=C[C@@H]41)O2` [RESINIFERATOXIN], for which the Ki result in experiment [1] (cho) is reported as “Not Active”.

Turning to `C=C(C)[C@@]12C[C@@H](C)C34OC(Cc5ccccc5)(OC1[C@@H]3C=C(COC(=O)Cc1cc(Br)c(OC(C)=O)c(OC)c1)C[C@]1(O)C(=O)C(C)=C[C@@H]41)O2` (stereo partly specified), the Activity in experiment [4] turned out to be 30%; in experiment [5] it was 37%. For the same compound, the affinity in experiment [2] corresponds to a Ki of 0.3 nM.

For the compound `C=C(C)[C@@]12C[C@@H](C)C34OC(Cc5ccccc5)(OC1[C@@H]3C=C(COC(=O)Cc1cc(Cl)c(N)c(OC)c1)C[C@]1(O)C(=O)C(C)=C[C@@H]41)O2` (stereo partly specified), the values for the Activity in experiment [4] and in experiment [5] were 56% and 34%, respectively. In experiment [2], this compound returned a Ki of 0.85 nM.

Consider `C=C(C)[C@@]12C[C@@H](C)C34OC(Cc5ccccc5)(OC1[C@@H]3C=C(COC(=O)Cc1cc(F)c(O)c(OC)c1)C[C@]1(O)C(=O)C(C)=C[C@@H]41)O2` (stereo partly specified), for which the Ki result in experiment [1] (cho) was “Not Active”; in experiment [2], 0.26 nM. The concentration for a half-maximal effect (EC50) in experiment [3] (read-out: EC50) came out at 1.88 nM.

For `C=C(C)[C@@]12C[C@@H](C)C34OC(Cc5ccccc5)(OC1[C@@H]3C=C(COC(=O)Cc1cc(Br)c(O)c(OC)c1)C[C@]1(O)C(=O)C(C)=C[C@@H]41)O2` (stereo partly specified), the Ki in experiment [1] (read-out: Ki) was found to be 7.2 nM; in experiment [2], 0.17 nM. Also, the Activity in experiment [5] is 19%.
